From ChEMBL document CHEMBL4507279, “Data for DCP probe BI-9627” (2021)

What was measured:
[1] = biological target: Sigma non-opioid intracellular receptor 1 (Homo sapiens) (UniProt Q99720); details: Compound concentration 10.0 uM
[2] = test system: Proto-oncogene tyrosine-protein kinase receptor Ret (Homo sapiens), P07949 [M918T]; details: Compound concentration 1000.0 nM
[3] = biological target: D(2) dopamine receptor (Homo sapiens) (UniProt P14416); details: Compound concentration 10.0 uM
[4] = biological target: D(3) dopamine receptor (Homo sapiens) (UniProt P35462); details: Compound concentration 10.0 uM
[5] = biological target: Sodium/hydrogen exchanger 1 (Homo sapiens, UniProt P19634); assay: pHi change assay with SLC9A1
[6] = biological target: Sodium channel alpha subunit (site 2) (Homo sapiens, UniProt P35498+P35499+Q01118+Q14524+Q15858+Q99250+Q9NY46+Q9UI33+Q9UQD0+Q9Y5Y9); assay: NA+/SITE2AG Eurofins-Panlabs selectivity data (BI); format: protein assay, Cavia porcellus; set-up: mode of action antagonist; details: guinea pig; compound concentration 30 uM; read-out: % Ctrl
[7] = biological target: Delta-type opioid receptor (Homo sapiens) (UniProt P41143); assay: DELTA/HU Eurofins-Panlabs selectivity data (BI); details: Compound concentration 10.0 uM
[8] = biological target: Androgen receptor (Rattus norvegicus) (UniProt P15207); assay: TESTOST/RA Eurofins-Panlabs selectivity data (BI); details: Compound concentration 10.0 uM
[9] = biological target: Nicotinic acetylcholine receptor alpha-1/beta-1 (Homo sapiens) (UniProt P02708+P11230); assay: NACH_BS_N/H Eurofins-Panlabs selectivity data (BI); format: protein-complex assay; details: Compound concentration 10.0 uM
[10] = biological target: 5-hydroxytryptamine receptor 1A (Homo sapiens) (UniProt P08908); details: Compound concentration 10.0 uM
[11] = biological target: Gamma-aminobutyric acid type B receptor subunit 1 (Homo sapiens) (UniProt Q9UBS5); assay: GABA_B1A Eurofins-Panlabs selectivity data (BI); details: Compound concentration 10.0 uM
[12] = biological target: Sodium- and chloride-dependent GABA transporter 1 (Rattus norvegicus) (UniProt P23978); assay: GABATRANS/RA Eurofins-Panlabs selectivity data (BI); details: Compound concentration 10.0 uM
[13] = biological target: B2 bradykinin receptor (Homo sapiens) (UniProt P30411); assay: B2/HU Eurofins-Panlabs selectivity data (BI); details: Compound concentration 10.0 uM
[14] = biological target: 5-hydroxytryptamine receptor 2A (Homo sapiens, UniProt P28223); assay: GPCRScan assay: inhibition of 5-HT2A; set-up: radioligand conc. used [nm] 1.2 – 2.4, parental cells HEKT
[15] = biological target: Muscarinic acetylcholine receptor M3 (Homo sapiens) (UniProt P20309); assay: M3/HU Eurofins-Panlabs selectivity data (BI); details: Compound concentration 10.0 uM
[16] = biological target: Kappa-type opioid receptor (Homo sapiens) (UniProt P41145); assay: KAPPA/HU Eurofins-Panlabs selectivity data (BI); details: Compound concentration 10.0 uM
[17] = biological target: Beta-1 adrenergic receptor (Homo sapiens) (UniProt P08588); details: Compound concentration 10.0 uM
[18] = biological target: Beta-2 adrenergic receptor (Homo sapiens) (UniProt P07550); assay: BETA2/HU Eurofins-Panlabs selectivity data (BI); details: Compound concentration 10.0 uM
[19] = biological target: Histamine H3 receptor (Homo sapiens) (UniProt Q9Y5N1); assay: H3/H Eurofins-Panlabs selectivity data (BI); details: Compound concentration 10.0 uM
[20] = biological target: Muscarinic acetylcholine receptor M3 (Homo sapiens) (UniProt P20309); details: Compound concentration 10.0 uM
[21] = biological target: 5-hydroxytryptamine receptor 1A (Homo sapiens) (UniProt P08908); assay: 5HT1A/HU Eurofins-Panlabs selectivity data (BI); details: Compound concentration 10.0 uM
[22] = biological target: Alpha-1B adrenergic receptor (Homo sapiens) (UniProt P35368); assay: ALPHA1B/R Eurofins-Panlabs selectivity data (BI); details: Rattus norvegicus; Compound concentration 10.0 uM
[23] = biological target: Voltage-dependent L-type calcium channel subunit alpha-1C (DHP site) (Rattus norvegicus, UniProt P22002); assay: CA+/DHPSI/RA Eurofins-Panlabs selectivity data (BI); details: compound concentration 10 uM, read-out: % Ctrl
[24] = biological target: hERG (voltage-gated inwardly rectifying potassium channel KCNH2) (Homo sapiens, UniProt Q12809); assay: K+/HERG Eurofins-Panlabs selectivity data (BI); details: compound concentration 10 uM, read-out: % Ctrl
[25] = biological target: Protein kinase C alpha type (Mus musculus) (UniProt P20444); assay: PHORBOLE/M Eurofins-Panlabs selectivity data (BI); details: Compound concentration 10.0 uM
[26] = biological target: Melatonin receptor type 1A (Homo sapiens) (UniProt P48039); details: Compound concentration 10.0 uM
[27] = biological target: D(2) dopamine receptor (Homo sapiens) (UniProt P14416); assay: D2S/HU Eurofins-Panlabs selectivity data (BI); details: Compound concentration 10.0 uM
[28] = biological target: T1, Alpha-1A adrenergic receptor (Homo sapiens) (UniProt P35348); assay: ALPHA1A/R Eurofins-Panlabs selectivity data (BI); details: Rattus norvegicus; Compound concentration 10.0 uM
T1 sequence (whole entry): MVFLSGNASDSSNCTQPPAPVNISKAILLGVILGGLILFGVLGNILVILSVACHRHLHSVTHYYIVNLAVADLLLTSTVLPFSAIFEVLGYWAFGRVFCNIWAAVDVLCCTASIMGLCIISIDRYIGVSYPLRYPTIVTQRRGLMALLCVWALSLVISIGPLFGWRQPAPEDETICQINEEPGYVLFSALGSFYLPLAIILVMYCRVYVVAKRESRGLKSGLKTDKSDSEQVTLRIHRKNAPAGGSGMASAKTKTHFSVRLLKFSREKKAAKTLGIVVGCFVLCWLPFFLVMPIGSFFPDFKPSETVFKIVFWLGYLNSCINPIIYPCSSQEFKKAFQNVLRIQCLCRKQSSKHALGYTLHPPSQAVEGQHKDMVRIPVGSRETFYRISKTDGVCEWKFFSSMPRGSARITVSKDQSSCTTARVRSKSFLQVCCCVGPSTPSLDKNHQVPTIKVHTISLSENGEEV

[29] = biological target: Endothelin receptor type B (Homo sapiens) (UniProt P24530); assay: ETB/HUM Eurofins-Panlabs selectivity data (BI); details: Compound concentration 10.0 uM
[30] = biological target: T2, Muscarinic acetylcholine receptor M2 (Homo sapiens) (UniProt P08172); assay: M2/HU Eurofins-Panlabs selectivity data (BI)
T2 sequence (whole entry): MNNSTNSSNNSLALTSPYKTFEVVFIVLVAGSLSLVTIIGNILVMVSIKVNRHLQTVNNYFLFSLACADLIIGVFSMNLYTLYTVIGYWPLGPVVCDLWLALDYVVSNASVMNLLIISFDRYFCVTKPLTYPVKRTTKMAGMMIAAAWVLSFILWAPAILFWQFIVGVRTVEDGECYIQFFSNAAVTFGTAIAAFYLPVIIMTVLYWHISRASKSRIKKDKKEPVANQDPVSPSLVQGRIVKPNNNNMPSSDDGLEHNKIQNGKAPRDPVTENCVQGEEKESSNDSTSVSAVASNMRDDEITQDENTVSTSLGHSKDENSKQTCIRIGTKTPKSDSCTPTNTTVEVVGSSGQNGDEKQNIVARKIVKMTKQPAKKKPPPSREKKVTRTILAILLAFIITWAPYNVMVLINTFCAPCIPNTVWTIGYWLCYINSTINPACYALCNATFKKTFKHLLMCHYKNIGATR

Chain of Muscarinic acetylcholine receptor M3 (Homo sapiens) (P20309 whole entry, looked up): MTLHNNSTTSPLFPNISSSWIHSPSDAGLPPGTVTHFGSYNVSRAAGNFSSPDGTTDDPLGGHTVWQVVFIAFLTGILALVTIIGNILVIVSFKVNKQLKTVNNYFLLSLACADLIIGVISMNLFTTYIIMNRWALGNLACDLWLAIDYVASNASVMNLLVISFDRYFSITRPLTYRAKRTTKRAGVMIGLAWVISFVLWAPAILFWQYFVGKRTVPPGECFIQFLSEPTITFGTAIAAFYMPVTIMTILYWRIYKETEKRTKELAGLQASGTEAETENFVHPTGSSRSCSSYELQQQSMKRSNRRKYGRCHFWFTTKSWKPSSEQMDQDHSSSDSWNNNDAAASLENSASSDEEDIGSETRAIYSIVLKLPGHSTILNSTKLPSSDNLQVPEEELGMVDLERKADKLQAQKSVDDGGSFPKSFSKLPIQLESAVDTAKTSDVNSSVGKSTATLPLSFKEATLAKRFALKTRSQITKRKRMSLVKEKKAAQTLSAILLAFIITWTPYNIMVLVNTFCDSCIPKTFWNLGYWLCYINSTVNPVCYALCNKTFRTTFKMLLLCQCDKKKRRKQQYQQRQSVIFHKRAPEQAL
Chain of 5-hydroxytryptamine receptor 1A (Homo sapiens) (P08908 whole entry): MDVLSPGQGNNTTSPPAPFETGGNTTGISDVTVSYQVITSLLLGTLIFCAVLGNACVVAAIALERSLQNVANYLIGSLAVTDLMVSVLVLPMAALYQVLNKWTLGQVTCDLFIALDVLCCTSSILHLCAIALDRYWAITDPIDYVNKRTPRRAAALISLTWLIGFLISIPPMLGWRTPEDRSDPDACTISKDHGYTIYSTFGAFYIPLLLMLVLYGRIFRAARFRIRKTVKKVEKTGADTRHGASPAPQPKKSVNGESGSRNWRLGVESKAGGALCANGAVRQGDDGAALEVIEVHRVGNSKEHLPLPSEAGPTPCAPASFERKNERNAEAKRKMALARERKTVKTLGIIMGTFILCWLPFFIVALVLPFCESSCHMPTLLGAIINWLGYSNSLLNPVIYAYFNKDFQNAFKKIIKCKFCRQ
Chain of D(2) dopamine receptor (Homo sapiens) (P14416 whole entry): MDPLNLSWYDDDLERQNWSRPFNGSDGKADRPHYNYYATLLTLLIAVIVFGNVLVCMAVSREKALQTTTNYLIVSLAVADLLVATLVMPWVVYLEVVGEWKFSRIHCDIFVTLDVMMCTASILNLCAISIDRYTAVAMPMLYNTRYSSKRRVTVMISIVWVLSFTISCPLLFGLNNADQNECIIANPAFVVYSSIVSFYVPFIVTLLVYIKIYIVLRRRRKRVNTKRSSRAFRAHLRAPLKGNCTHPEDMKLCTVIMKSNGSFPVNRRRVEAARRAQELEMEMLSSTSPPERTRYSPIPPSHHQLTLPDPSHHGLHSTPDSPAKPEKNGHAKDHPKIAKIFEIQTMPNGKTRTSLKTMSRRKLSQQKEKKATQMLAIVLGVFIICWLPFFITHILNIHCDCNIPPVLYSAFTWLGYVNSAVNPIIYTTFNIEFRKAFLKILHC
Chain of Kappa-type opioid receptor (Homo sapiens) (P41145 whole entry): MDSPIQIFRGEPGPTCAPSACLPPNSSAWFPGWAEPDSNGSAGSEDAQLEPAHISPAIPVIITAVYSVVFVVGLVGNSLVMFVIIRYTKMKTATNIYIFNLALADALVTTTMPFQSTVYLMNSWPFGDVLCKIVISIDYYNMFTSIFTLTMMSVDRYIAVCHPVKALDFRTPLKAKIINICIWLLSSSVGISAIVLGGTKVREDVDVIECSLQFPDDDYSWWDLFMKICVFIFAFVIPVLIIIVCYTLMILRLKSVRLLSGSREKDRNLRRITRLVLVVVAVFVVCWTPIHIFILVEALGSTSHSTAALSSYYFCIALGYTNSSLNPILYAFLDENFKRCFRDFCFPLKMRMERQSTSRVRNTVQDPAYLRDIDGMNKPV
Chain of Proto-oncogene tyrosine-protein kinase receptor Ret (Homo sapiens), P07949 [M918T] (P07949 whole entry M918T): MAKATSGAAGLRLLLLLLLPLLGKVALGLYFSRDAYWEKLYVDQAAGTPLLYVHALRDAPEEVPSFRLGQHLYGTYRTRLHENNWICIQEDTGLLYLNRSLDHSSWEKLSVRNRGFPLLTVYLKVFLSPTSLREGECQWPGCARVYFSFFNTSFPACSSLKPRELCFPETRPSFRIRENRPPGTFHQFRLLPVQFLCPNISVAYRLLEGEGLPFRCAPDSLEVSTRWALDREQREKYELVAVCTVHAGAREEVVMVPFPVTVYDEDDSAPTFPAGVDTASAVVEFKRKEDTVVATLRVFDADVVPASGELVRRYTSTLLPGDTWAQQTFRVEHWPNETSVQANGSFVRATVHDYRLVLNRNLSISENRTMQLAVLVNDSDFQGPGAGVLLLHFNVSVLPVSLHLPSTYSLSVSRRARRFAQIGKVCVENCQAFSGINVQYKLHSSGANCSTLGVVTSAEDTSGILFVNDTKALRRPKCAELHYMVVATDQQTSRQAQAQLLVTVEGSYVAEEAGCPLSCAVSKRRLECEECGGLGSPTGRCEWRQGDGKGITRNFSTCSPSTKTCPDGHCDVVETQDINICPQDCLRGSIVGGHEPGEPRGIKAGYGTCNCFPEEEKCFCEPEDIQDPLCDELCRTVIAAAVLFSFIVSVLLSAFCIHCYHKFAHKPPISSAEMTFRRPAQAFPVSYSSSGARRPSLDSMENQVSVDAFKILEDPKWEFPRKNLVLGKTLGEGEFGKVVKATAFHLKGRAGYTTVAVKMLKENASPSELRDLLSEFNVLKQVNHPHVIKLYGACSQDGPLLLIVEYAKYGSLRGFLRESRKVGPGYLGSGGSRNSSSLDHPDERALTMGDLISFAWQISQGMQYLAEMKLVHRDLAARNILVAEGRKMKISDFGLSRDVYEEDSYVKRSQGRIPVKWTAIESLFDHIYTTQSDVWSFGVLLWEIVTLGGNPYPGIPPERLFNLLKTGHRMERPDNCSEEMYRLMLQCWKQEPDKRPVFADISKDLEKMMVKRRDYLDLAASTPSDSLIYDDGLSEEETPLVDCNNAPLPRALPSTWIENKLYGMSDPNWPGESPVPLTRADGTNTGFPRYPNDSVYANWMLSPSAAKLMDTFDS
Chain of Endothelin receptor type B (Homo sapiens) (P24530 whole entry): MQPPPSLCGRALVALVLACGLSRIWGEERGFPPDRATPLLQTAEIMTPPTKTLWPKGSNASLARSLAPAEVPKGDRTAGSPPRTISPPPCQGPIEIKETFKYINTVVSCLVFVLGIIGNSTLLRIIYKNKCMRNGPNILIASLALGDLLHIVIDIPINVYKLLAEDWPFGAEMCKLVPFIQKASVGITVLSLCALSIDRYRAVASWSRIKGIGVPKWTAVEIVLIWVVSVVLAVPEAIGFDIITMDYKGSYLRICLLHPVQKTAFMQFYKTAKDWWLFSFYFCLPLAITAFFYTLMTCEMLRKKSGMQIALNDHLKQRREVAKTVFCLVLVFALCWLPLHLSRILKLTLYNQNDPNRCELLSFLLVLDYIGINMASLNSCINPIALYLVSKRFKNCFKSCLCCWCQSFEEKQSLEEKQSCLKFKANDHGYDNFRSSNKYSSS
Chain of Beta-2 adrenergic receptor (Homo sapiens) (P07550 whole entry, looked up): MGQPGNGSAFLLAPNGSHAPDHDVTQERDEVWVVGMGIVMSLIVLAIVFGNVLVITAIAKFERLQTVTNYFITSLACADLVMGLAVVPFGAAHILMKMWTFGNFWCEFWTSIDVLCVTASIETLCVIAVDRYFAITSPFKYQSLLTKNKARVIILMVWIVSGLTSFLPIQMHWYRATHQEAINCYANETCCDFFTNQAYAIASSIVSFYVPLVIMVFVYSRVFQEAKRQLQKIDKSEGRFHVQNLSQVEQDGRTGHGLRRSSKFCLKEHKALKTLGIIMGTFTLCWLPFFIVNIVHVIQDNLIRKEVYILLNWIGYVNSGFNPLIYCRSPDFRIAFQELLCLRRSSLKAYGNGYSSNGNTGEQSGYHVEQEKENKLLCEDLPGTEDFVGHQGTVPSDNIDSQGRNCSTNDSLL
Chain of Sodium/hydrogen exchanger 1 (P19634 whole entry): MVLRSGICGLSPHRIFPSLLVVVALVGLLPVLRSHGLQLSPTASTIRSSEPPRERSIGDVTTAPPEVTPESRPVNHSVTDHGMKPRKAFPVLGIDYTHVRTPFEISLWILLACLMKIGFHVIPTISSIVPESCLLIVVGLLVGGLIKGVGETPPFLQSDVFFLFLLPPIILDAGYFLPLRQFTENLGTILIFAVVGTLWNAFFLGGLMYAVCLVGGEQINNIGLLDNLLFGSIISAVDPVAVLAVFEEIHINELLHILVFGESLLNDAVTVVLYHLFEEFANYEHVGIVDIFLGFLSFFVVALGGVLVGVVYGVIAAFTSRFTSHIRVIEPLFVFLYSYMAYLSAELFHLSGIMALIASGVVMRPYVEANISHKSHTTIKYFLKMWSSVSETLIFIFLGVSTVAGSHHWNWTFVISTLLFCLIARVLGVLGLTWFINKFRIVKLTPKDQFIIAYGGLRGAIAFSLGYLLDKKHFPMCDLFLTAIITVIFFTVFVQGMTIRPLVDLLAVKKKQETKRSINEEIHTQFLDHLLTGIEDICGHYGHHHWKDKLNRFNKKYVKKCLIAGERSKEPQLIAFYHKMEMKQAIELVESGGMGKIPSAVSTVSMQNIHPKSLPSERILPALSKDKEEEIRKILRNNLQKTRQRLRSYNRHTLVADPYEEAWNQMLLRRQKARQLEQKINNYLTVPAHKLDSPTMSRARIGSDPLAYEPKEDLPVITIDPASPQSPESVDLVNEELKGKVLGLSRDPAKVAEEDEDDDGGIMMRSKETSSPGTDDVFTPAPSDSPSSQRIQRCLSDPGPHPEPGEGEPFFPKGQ
Chain of Delta-type opioid receptor (Homo sapiens) (P41143 whole entry): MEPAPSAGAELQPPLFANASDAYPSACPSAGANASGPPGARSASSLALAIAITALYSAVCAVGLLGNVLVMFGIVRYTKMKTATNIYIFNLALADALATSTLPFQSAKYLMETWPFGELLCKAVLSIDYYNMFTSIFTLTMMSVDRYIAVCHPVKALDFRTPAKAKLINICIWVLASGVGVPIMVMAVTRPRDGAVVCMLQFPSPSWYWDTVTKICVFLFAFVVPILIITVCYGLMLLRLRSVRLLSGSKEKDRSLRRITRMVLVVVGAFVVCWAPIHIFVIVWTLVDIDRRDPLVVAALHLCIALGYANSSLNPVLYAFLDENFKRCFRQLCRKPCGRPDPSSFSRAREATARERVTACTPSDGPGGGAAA

CC(=O)N1CCC(c2ccc(C(=O)NC3=NCCN3)cc2C(F)(F)F)CC1 [BI 0054]
inactive: inhibition [1] -8.45% | residual activity [2] 90% | inhibition [3] -4.57% | inhibition [4] -7.75%
> 10 µM (not active): IC50 [5]

CC(=O)N1CCC(c2ccc(C(=O)NC(=N)N)cc2C(F)(F)F)CC1 [BI 9627]
active: residual activity ([30]; Compound concentration 3.0 uM) 48% | residual activity ([30]; Compound concentration 10.0 uM) 33% | residual activity ([30]; Compound concentration 30.0 uM) 11%
105% (not active): activity at 10 µM [24]
10 µM: Ki [14]
inactive: residual activity [7] 113% | residual activity [8] 95% | residual activity [9] 100% | inhibition [10] -5.21% | residual activity [11] 103% | residual activity [12] 101% | residual activity [13] 105% | residual activity [15] 79% | residual activity [16] 74% | inhibition [17] -9.29% | residual activity [18] 102% | residual activity [19] 109% | inhibition [20] 12.1% | residual activity [21] 82% | residual activity [22] 95% | residual activity [25] 101% | residual activity [26] 96% | residual activity [27] 110% | residual activity [28] 86% | residual activity [29] 114% | residual activity ([30]; Compound concentration 0.03 uM) 102% | residual activity ([30]; Compound concentration 0.1 uM) 108% | residual activity ([30]; Compound concentration 0.3 uM) 71% | residual activity ([30]; Compound concentration 1.0 uM) 70%
100% (not active): activity at 30 µM [6]
77% (not active): activity at 10 µM [23]
